Data: ChEMBL document CHEMBL1136580, “Enterolosaponins A and B, novel triterpene bisdesmosides from Enterolobium contortisiliquum, and evaluation for their macrophage-oriented cytotoxic activity” (Bioorg Med Chem Lett, 2003)

Experiment: Compound was tested for its cytotoxic activity against BACI.2F5 mouse macrophages
Conditions: read-out: LD50 (the source's name)

SMILES: CC(=O)N[C@@H]1[C@H](O[C@H]2CC[C@]3(C)[C@H]4CC=C5[C@@H]6CC(C)(C)[C@@H](OC(=O)/C=C/c7ccccc7)C[C@]6(C(=O)O[C@@H]6O[C@@H](CO)[C@@H](O)[C@H](O)[C@@H]6O[C@@H]6O[C@@H](C)[C@H](O[C@@H]7O[C@@H](CO)[C@H](O)[C@H]7O)[C@H](O[C@@H]7O[C@@H](CO)[C@@H](O)[C@H](O)[C@@H]7O)[C@H]6O)CC[C@@]5(C)[C@]4(C)CC[C@H]3C2(C)C)O[C@@H](CO[C@@H]2OC[C@H](O)[C@@H](O)[C@@H]2O[C@@H]2OC[C@@H](O)[C@H](O)[C@@H]2O)[C@@H](O)[C@@H]1O
- CC50: ≤ 3000 nM
